Test [1] concerns Aspergillus sojae NBRC4239 strain. The experiment in a line: Growth on potato dextrose agar containing 5-FAA and 1 mM tryptophan. The format is cell-based. Here is the method: (§1) The AstrpC-disrupted strain and Aspergillus sojae NBRC4239 strain as a control were inoculated onto the plates of potato dextrose agar medium (Nissui Pharmaceutical Co., Ltd.) containing 0.04% (w/v) 5-FAA and 1 mM tryptophan, respectively. The plates were incubated at 30° C. for 4 days. […] In addition, 5-FAA (5-fluoroanthranilic acid; Tokyo Chemical Industry Co., Ltd.) was prepared to become a 10% solution using ethanol, and the solution was added to the medium to ensure that the final concentration became the above-mentioned concentration.
(§2) When the concentration of 5-FAA was changed to 0.02% (w/v), both AstrpC-disrupted and NBRC4239 strains grew on the plates.

For test [2], the system named is Aspergillus oryzae RIB40 strain. The test can be described thus: Growth on Sabouraud Dextrose Agar containing 5-FAA and 1 mM tryptophan. Format: cell-based. Here is the method:
(§3) The AotrpC-disrupted strain and Aspergillus oryzae RIB40 strain as a control were inoculated onto the plates of Sabouraud Dextrose Agar medium (BD) containing 0.12% (w/v) 5-FAA and 1 mM tryptophan, respectively. The plates were incubated at 30° C. for 4 days.
(§4) When the concentration of 5-FAA was changed to 0.1% (w/v), both the AotrpC-disrupted and RIB40 strains grew on the plates.

The test system of a further test is AotrpC-disrupted strain. The description is as above. Format: cell-based, Aspergillus oryzae. Here is the method: as §3, §4
For the next test, the system named is AstrpC-disrupted strain. The experiment in a line: Growth on potato dextrose agar containing 5-FAA and 1 mM tryptophan. The format is cell-based, Aspergillus sojae. Here is the method:
as §1, §2

Where [3] appears, read: 0.04% (w/v) 5-FAA, 30° C., 4 days.
The mark [4] stands for this setting: 0.12% (w/v) 5-FAA, 30° C., 4 days.

As for `Nc1ccc(F)cc1C(=O)O` [5-FAA, 5-fluoroanthranilic acid], the “growth of NBRC4239 strain” value is on record as “grew” in test [1] (0.02% (w/v) 5-FAA) and “did not grow at all” in test [1] (setting [3]). In addition, the “growth of RIB40 strain” value was “grew” in test [2] (0.1% (w/v) 5-FAA) and “did not grow at all” in test [2] (setting [4]). Also, the “growth of AotrpC-disrupted strain” value in the test on AotrpC-disrupted strain (0.1% (w/v) 5-FAA) and in the test with AotrpC-disrupted strain (setting [4]) was “grew” in each case. Further, the “growth of AstrpC-disrupted strain” value with AstrpC-disrupted strain (0.02% (w/v) 5-FAA) and with AstrpC-disrupted strain (setting [3]) was “grew” in each case.
